Legend:
[1] = target: Progesterone receptor membrane component 1 (hPGRMC1) (Homo sapiens, UniProt O00264, Y164F); assay: UV-vis spectroscopy; type: binding
[2] = target: Progesterone receptor membrane component 1 (hPGRMC1) (Homo sapiens, UniProt O00264, Y164H); assay: UV-vis; type: binding
Progesterone receptor membrane component 1 (hPGRMC1) (Homo sapiens, UniProt O00264, Y164H), sequence (O00264 71-195 Y164H): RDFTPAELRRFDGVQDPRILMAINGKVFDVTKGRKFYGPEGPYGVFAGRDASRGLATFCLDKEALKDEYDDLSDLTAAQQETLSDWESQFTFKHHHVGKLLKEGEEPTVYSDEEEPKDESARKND

Progesterone receptor membrane component 1 (hPGRMC1) (Homo sapiens, UniProt O00264, Y164F), sequence (O00264 71-195 Y164F): as the sequence (O00264 71-195 Y164H) above, with H94F counted along it

heme
% of WT heme binding [1]: ~ 15 % of WT heme binding
% of WT heme binding [2]: ~ 90 % of WT heme binding

From paper PMC4533898 (Biochemistry, 2015)
